In patent publication US20220400669A1, “COMPOUNDS AND METHODS FOR PROMOTING PLANT GROWTH” (King Abdullah University of Science and Technology, priority 2019, published 2022):

How the values were obtained:
[1] = tested on: Gigaspora margarita spores; experiment: Gigaspora margarita spores germination; type: in vivo; details: 5 μM and 50 nM, 3 and 7 days
Method: Spores were sterilized in a solution of Streptomycine sulphate (0.03% W/V) and Chloramine T (3% W/V) and germinated in 200 μl of MZ3 and MZ5 at 5 μM or 50 nM, GR24 10 nM or a solution of Water/Acetone (12.5 μl acetone in 25 ml water). For each treatments 96 sterilized spores were placed individually in the wells of a multi-well plate and treated with freshly prepared solutions at the beginning of the experiment and after 3 days. Spores were germinated in the dark at 30° C. and the germination rate was evaluated after 3 days and 7 days.

[2] = LC-MS analysis of rice plants fed with the mimics; type: in vivo; details: data not shown
[3] = tested on: zas mutant and Nipponbare wild-type rice seedlings; experiment: Hydroponic rice growth, zas mutant rescue and tillering; type: in vivo; details: hydroponic system, 2.5 μM
Method: For rescuing zas mutant phenotypes and investigating the effect of the compounds MZ3 and MZ5 on different genotypes, one week-old seedlings were grown hydroponically in half-strength modified Hoagland nutrient solution containing K2HPO4.2H2O (+Pi), 2.5 μM and 5 μM zaxinone or compounds (MZ2-MZ5) (dissolved in 0.1% acetone) or the corresponding volume of the solvent (control) for 21 days (i.e. 3 weeks). The solution was changed every other day, adding the chemical at each renewal.

[4] = tested on: strigolactones (4-deoxyorobanchol, orobanchol) content; experiment: LC-MS/MS quantification of SLs in rice root tissues; type: in vivo; details: Pi-starved WT rice, 5 μM, 6 hours
Method: For SL analysis, one-week-old seedlings were transferred into 50 ml falcon tubes (two seedlings per tube), containing half-strength Hoagland nutrient solution with K2HPO4.2H2O (+Pi), and grown in the biochamber for one week. Rice seedlings were then subjected to phosphate deficiency (−Pi) for another one week. On the day of root exudates collection, rice seedlings were first treated with 5 μM Zaxinone, or MZ compounds for 6 h, and then root exudates and root tissues were collected from each tube for LC-MS/MS analysis and Striga bioassays.
For the quantification of SLs in rice root, plant tissue material was lyophilized and grinded. Approximately 20 mg root tissue spiked with 0.672 ng of D6-5-deoxystrigol was extracted with 2 ml of ethyl acetate in an ultrasound bath (Branson 3510 ultrasonic bath) for 15 min, followed by centrifugation for 8 min at 3800 rpm at 4° C. The supernatant was collected and the pellet was re-extracted with 2 ml of ethyl acetate. Then the two supernatants were combined and dried under vacuum. The residue was dissolved in 100 μl of ethyl acetate and 2 ml of hexane. The resulting extract solution was loaded on a Silica gel SPE column (500 mg/3 ml) preconditioned with 3 ml of ethyl acetate and 3 ml of hexane. […] 4-deoxyorobanchol was analyzed by using HPLC-Q-Trap-MS/MS with MRM mode. […]

[5] = Chemical stability in aqueous solution by HPLC; type: physicochemical; details: 14-day HPLC analysis, room temperature (21±1° C.), pH 5.0-6.0 aqueous solution; compared with MZ5
Method: MZ3, and MZ5 were tested for their chemical stability at 21±1° C. with pH 5.0-6.0 aqueous solution following the protocol described recently. 50 μl of each compound solutions (1 mg ml-1) was prepared with 175 μl ethanol and 750 μl Mili-Q water. Thereafter, 25 μl Indanol (1 mg ml-1, internal standard) was spiked in 975 μl previous prepared solution. The degradation was monitored at a time course by UPLC analysis using an Agilent HPLC ZORBAX Eclipse XDB-C18 column (3.5 μm, 4.6×150 mm), eluted first by 5% acetonitrile in water for 0.5 min then by a gradient flow from 5% to 100% acetonitrile within 18 min, and by 100% acetonitrile for 5 min. The column was operated at 40° C. at 0.35 ml min^−1 flow rate. Compounds eluted from the column were detected with a photodiode array detector, and the relative quantity of non-degraded amount was calculated by integration comparison with Indanol.
Zaxinone was tested under the same conditions for comparison. Synthetic zaxinone was purchased (customized synthesis) from Buchem B.V. (Apeldoorn, The Netherlands).

[6] = tested on: tomato plant (c.v. Money maker); experiment: Foliar application on tomato plants; type: in vivo; details: 5 μM foliar application
Method: Tomato seeds (c.v. Money maker) were sterilized and pre-germinated on moistened filter paper at 22° C. for 4-5 days, transferred to light for 3-4 days or direct sowed of seeds from fresh tomatoes in soils at 25° C. Most uniform seedlings (10 days old) were selected and transferred to pots. After one week of the transfer, 5 μM compounds were used for foliar application. Each compound was applied three times in a week up to four weeks: 20 mL per pot (spray as runoff) in first 3 weeks, and 40 mL per pot in last 4th week. The plants were grown under normal growth condition (27° C., 70% RH).

SMILES: COc1ccc(Oc2cccc(/C=C/C(C)=O)c2)cc1 [MZ3, (E)-4-(3-(4-methoxyphenoxy)phenyl)but-3-en-2-one]
- spore germination rate [1]: no effect
- presence in shoots of rice plants fed through roots [2]: detected
- root length of wild-type plants relative to zaxinone [3]: more active than zaxinone
- Oro content in roots ([4]; control 0.6): 0.1 pgmg-1dry-root-weight
- 4DO content in roots ([4]; control 2.5): 0.5 pgmg-1dry-root-weight
- stability (relative amount of non-degraded compound) [5]: much more stable
- plant height, branch, flowers and fruit numbers compared to zaxinone [6]: strongly increased
